Columns and labels:
surinam grass = experiment: Test B pre/postemergence surinam grass; assay type: in vivo, Brachiaria decumbens
In short: (§1)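 Test chemicals in a non-phytotoxic solvent mixture with surfactant were sprayed preemergence onto planted seeds and postemergence onto plants 2 to 18 cm tall (1- to 4-leaf stage). After twelve to sixteen days in a greenhouse, injury was visually rated against untreated controls from 0 (no effect) to 10 (complete control).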

cocklebur = experiment: Test B pre/postemergence cocklebur; assay type: in vivo, Xanthium strumarium
In short: as §1

sugar beet = experiment: Test B pre/postemergence sugar beet; assay type: in vivo, Beta vulgaris
In short: as §1

purple nutsedge = experiment: Test B pre/postemergence purple nutsedge; assay type: in vivo, Cyperus rotundus
In short: as §1

pigweed = experiment: Test B pre/postemergence pigweed; assay type: in vivo, Amaranthus retroflexus
In short: as §1

giant foxtail = experiment: Test B pre/postemergence giant foxtail; assay type: in vivo, Setaria faberii
In short: as §1

soybean = experiment: Test B pre/postemergence soybean; assay type: in vivo, Glycine max
In short: as §1

velvetleaf = experiment: Test B pre/postemergence velvetleaf; assay type: in vivo, Abutilon theophrasti
In short: as §1

wild oat = experiment: Test B pre/postemergence wild oat; assay type: in vivo, Avena fatua
In short: as §1

corn = experiment: Test B pre/postemergence corn; assay type: in vivo, Zea mays
In short: as §1

blackgrass = experiment: Test B pre/postemergence blackgrass; assay type: in vivo, Alopecurus myosuroides
In short: as §1

bedstraw = experiment: Test B pre/postemergence bedstraw; assay type: in vivo, Galium aparine
In short: as §1

crabgrass = experiment: Test B pre/postemergence crabgrass; assay type: in vivo, Digitaria sanguinalis
In short: as §1

morningglory = experiment: Test B pre/postemergence morningglory; assay type: in vivo, Ipomoea hederacea
In short: as §1

rape = experiment: Test B pre/postemergence rape; assay type: in vivo, Brassica napus
In short: as §1

wheat = experiment: Test B pre/postemergence wheat; assay type: in vivo, Triticum aestivum
In short: as §1

[1] = Postemergence, Rate 62 g/ha, scale 0 to 10, 0 is no effect, 10 is complete control
[2] = Postemergence, Rate 125 g/ha, scale of 0 to 10 where 0 is no effect and 10 is complete control
[3] = Preemergence, Rate 125 g/ha, scale of 0 to 10 where 0 is no effect and 10 is complete control
[4] = Rate 250 g/ha, Postemergence, scale 0 to 10, 0 is no effect, 10 is complete control
[5] = Rate 500 g/ha, Postemergence, scale 0 to 10, 0 is no effect, 10 is complete control
[6] = Rate 500 g/ha, Preemergence, scale 0 to 10 (0 no effect, 10 complete control)
[7] = Preemergence, Rate 250 g/ha, scale 0 (no effect) to 10 (complete control)
[8] = Rate 62 g/ha, Preemergence, scale 0 to 10

## CC(C)N(C(=O)n1oc(=O)n(C[C@H](C)Cl)c1=O)c1ccccc1 [Compound 747]
Surinam grass; [1]
  Plant response rating, B. signalgrass: 1
Surinam grass; [2]
  B. signalgrass plant response rating: 3
Surinam grass; Preemergence, Rate 62 g/ha, scale of 0 to 10 where 0 is no effect and 10 is complete control
  B. signalgrass plant response rating: 7
Surinam grass; [3]
  Plant response rating, B. signalgrass: 8
Surinam grass; [4]
  B. signalgrass plant response rating: 4
Surinam grass; [5]
  B. signalgrass plant response rating: 6
Surinam grass; [6]
  B. signalgrass plant response rating: 9
cocklebur; [1]
  Plant response rating, Cocklebur: 0
cocklebur; [2]
  Cocklebur plant response rating: 0
cocklebur; [7]
  Cocklebur plant response rating: 0
cocklebur; [8]
  Cocklebur plant response rating: 0
cocklebur; [4]
  Cocklebur plant response rating: 2
cocklebur; [5]
  Cocklebur plant response rating: 4
cocklebur; [6]
  Cocklebur plant response rating: 0
Sugar beet; [1]
  Plant response rating, Sugarbeets: 0
Sugar beet; [2]
  Sugarbeets plant response rating: 0
Sugar beet; [3]
  Plant response rating, Sugarbeets: 6
Sugar beet; [7]
  Sugarbeets plant response rating: 7
Sugar beet; [8]
  Sugarbeets plant response rating: 4
Sugar beet; [4]
  Sugarbeets plant response rating: 0
Sugar beet; [5]
  Sugarbeets plant response rating: 3
Purple nutsedge; [1]
  Plant response rating, Nutsedge: 0
Purple nutsedge; [2]
  Nutsedge plant response rating: 0
Purple nutsedge; [3]
  Plant response rating, Nutsedge: 2
Purple nutsedge; [7]
  Nutsedge plant response rating: 4
Purple nutsedge; [8]
  Nutsedge plant response rating: 0
Purple nutsedge; [4]
  Nutsedge plant response rating: 0
Purple nutsedge; [5]
  Nutsedge plant response rating: 0
Purple nutsedge; [6]
  Nutsedge plant response rating: 2
pigweed; [1]
  Plant response rating, Redroot pigweed: 4
pigweed; [2]
  Redroot pigweed plant response rating: 4
pigweed; [7]
  Redroot pigweed plant response rating: 8
pigweed; [8]
  Redroot pigweed plant response rating: 8
pigweed; [4]
  Redroot pigweed plant response rating: 7
pigweed; [5]
  Redroot pigweed plant response rating: 8
Giant foxtail; [1]
  Plant response rating, Giant foxtail: 8
Giant foxtail; [2]
  Giant foxtail plant response rating: 9
Giant foxtail; [3]
  Plant response rating, Giant foxtail: 10
Giant foxtail; [7]
  Giant foxtail plant response rating: 10
Giant foxtail; [8]
  Giant foxtail plant response rating: 10
Giant foxtail; [4]
  Giant foxtail plant response rating: 9
Giant foxtail; [5]
  Giant foxtail plant response rating: 9
Giant foxtail; [6]
  Giant foxtail plant response rating: 10
soybean; [1]
  Plant response rating, Soybean: 4
soybean; [2]
  Soybean plant response rating: 4
soybean; [3]
  Plant response rating, Soybean: 0
soybean; [7]
  Soybean plant response rating: 0
soybean; [8]
  Soybean plant response rating: 0
soybean; [4]
  Soybean plant response rating: 7
soybean; [5]
  Soybean plant response rating: 8
soybean; [6]
  Soybean plant response rating: 9
velvetleaf; [1]
  Plant response rating, Velvetleaf: 0
velvetleaf; [2]
  Velvetleaf plant response rating: 4
velvetleaf; [3]
  Plant response rating, Velvetleaf: 6
velvetleaf; [7]
  Velvetleaf plant response rating: 7
velvetleaf; [8]
  Velvetleaf plant response rating: 4
velvetleaf; [4]
  Velvetleaf plant response rating: 4
velvetleaf; [5]
  Velvetleaf plant response rating: 7
velvetleaf; [6]
  Velvetleaf plant response rating: 7
Wild oat; [1]
  Plant response rating, Wild oats: 0
Wild oat; [2]
  Wild oats plant response rating: 0
Wild oat; [7]
  Wild oats plant response rating: 3
Wild oat; [8]
  Wild oats plant response rating: 3
Wild oat; [4]
  Wild oats plant response rating: 2
Wild oat; [5]
  Wild oats plant response rating: 2
corn; [1]
  Plant response rating, Corn: 0
corn; [2]
  Corn plant response rating: 0
corn; [3]
  Plant response rating, Corn: 2
corn; [7]
  Corn plant response rating: 6
corn; [8]
  Corn plant response rating: 2
corn; [4]
  Corn plant response rating: 4
corn; [5]
  Corn plant response rating: 5
corn; [6]
  Corn plant response rating: 9
blackgrass; [1]
  Plant response rating, Blackgrass: 5
blackgrass; [2]
  Blackgrass plant response rating: 7
blackgrass; [3]
  Plant response rating, Blackgrass: 8
blackgrass; [8]
  Blackgrass plant response rating: 8
blackgrass; [4]
  Blackgrass plant response rating: 8
blackgrass; [5]
  Blackgrass plant response rating: 8
blackgrass; [6]
  Blackgrass plant response rating: 8
bedstraw; [1]
  Plant response rating, Bedstraw: 8
bedstraw; [2]
  Bedstraw plant response rating: 8
bedstraw; [3]
  Plant response rating, Bedstraw: 0
bedstraw; [8]
  Bedstraw plant response rating: 0
bedstraw; [6]
  Bedstraw plant response rating: 0
crabgrass; [1]
  Plant response rating, Crabgrass: 3
crabgrass; [2]
  Crabgrass plant response rating: 9
crabgrass; [3]
  Plant response rating, Crabgrass: 10
crabgrass; [7]
  Crabgrass plant response rating: 10
crabgrass; [8]
  Crabgrass plant response rating: 10
crabgrass; [4]
  Crabgrass plant response rating: 9
crabgrass; [5]
  Crabgrass plant response rating: 9
crabgrass; [6]
  Crabgrass plant response rating: 10
morningglory; [1]
  Plant response rating, Morningglory: 2
morningglory; [2]
  Morningglory plant response rating: 9
morningglory; [3]
  Plant response rating, Morningglory: 0
morningglory; [7]
  Morningglory plant response rating: 0
morningglory; [8]
  Morningglory plant response rating: 0
morningglory; [4]
  Morningglory plant response rating: 10
morningglory; [5]
  Morningglory plant response rating: 10
morningglory; [6]
  Morningglory plant response rating: 7
rape; [1]
  Plant response rating, Rape: 4
rape; [2]
  Rape plant response rating: 4
rape; [3]
  Plant response rating, Rape: 9
rape; [7]
  Rape plant response rating: 10
rape; [8]
  Rape plant response rating: 7
rape; [4]
  Rape plant response rating: 4
rape; [5]
  Rape plant response rating: 9
wheat; [1]
  Plant response rating, Wheat: 0
wheat; [2]
  Wheat plant response rating: 0
wheat; [7]
  Wheat plant response rating: 0
wheat; [8]
  Wheat plant response rating: 0
wheat; [4]
  Wheat plant response rating: 4
wheat; [5]
  Wheat plant response rating: 4

Source: US6737383B1, “Herbicidal oxadiazolidines” (priority 1999, dated 2004)
